Laboratory results as given in patent US8476408B2, “Unacylated ghrelin and analogs as therapeutic agents for vascular remodeling in diabetic patients and treatment of cardiovascular disease” (Alize Pharma SAS, priority 2008, dated 2013).
Where no end group is shown, it is not given here.

What was measured:
[1] = system: CAC; assay: Arterial specification of recovered human CAC (Q-RT-PCR of Ephrin B2, Notch1, Notch4, EphB4); type: in vivo; conditions: cells from treated patients cultured with IL-3; FIG. 3D
Procedure: RNA isolation and quantitative real-time PCR—CAC from diabetic patients, healthy subjects and mice treated with UAG or saline were cultured in EGM-2 medium. Human arterial and venous cells were used as a positive controls. mRNA quantification was performed by Q-RT-PCR, as previously described (Ref. 24). The relative expression of Ephrin B2, Notch1, Notch4 and EphB4 were calculated by using comparative threshold cycle methods. The human and murine primer sequences used were described (Refs. 25, 26).

[2] = system: HIT-T15 β-cells; assay: Survival of cytokine-treated HIT-T15 β-cells (MTT); type: cell-based; conditions: cytokines (IFN-γ/TNF-α/IL-1β), peptides 1 nM to 100 nM
Procedure: The survival effect of UAG (6-13) (SEQ ID NO: 6), UAG (8-13) (SEQ ID NO: 7), UAG (8-12) (SEQ ID NO: 8), UAG (8-11) (SEQ ID NO: 12), UAG (9-12) (SEQ ID NO: 9) and UAG (9-11) (SEQ ID NO: 10) was assessed in cytokine-treated HIT-T15 β-cells. […] The protective effects of peptides UAG (8-13) (SEQ ID NO: 7) and UAG (8-12) (SEQ ID NO: 8) were found similar to those of UAG (1-14) (SEQ ID NO: 2) and UAG (1-18) (SEQ ID NO: 3). A peptide made of the inverse sequence of UAG (1-14) (SEQ ID NO: 2) and named UAG (14-1) (SEQ ID NO: 11), was used as negative control for these experiments. […] These effects were however lower than those of UAG (6-13) (SEQ ID NO: 6).

[3] = system: CAC; assay: Expansion (S phase) of CAC recovered from treated mice; type: in vivo; conditions: CAC from UAG-challenged mice, IL-3; FIG. 4C
Procedure: (§1) Flow Cytometry—To analyze CAC cell-cycle progression, cells recovered from diabetic, healthy subjects, NOD/SCID, ob/ob and wt mice, were cultured in EBM-2 supplemented with IL-3 (10 ng/ml), FACS analysis was performed as previously described (Ref. 20). Cell surface molecules were evaluated by flow cytometry as previously described (Ref. 24). Frequency of marker-positive cells is expressed as mean±standard deviation (SD).
Isolation and Culture of CAC from C57BU6J, C57BL/6J ob/ob mice and NOD/SCID mice—6 weeks old C57BL/6J (wt) and ob/ob mice, 7 and 17 weeks old NOD/SCID mice were purchased from Charles River Lab (Lecco, Italy). Animals were anesthetized by intraperitoneal injection with Avertin (100 mg/50ml ip). Blood samples were drawn from left ventricular, as described by Hoff (Ref. 27). Peripheral blood MNC were isolated by Ficoll density-gradient centrifugation. Recovered cells were washed twice Isolated cells were resuspended and were cultured on 20 μg/ml fibronectin-coated dishes in EGM-2 BulletKit Medium. In selected experiments, the isolated CAC were cultured in EBM-2 medium supplemented with 10 ng/ml of IL-3.

[4] = system: CAC; assay: CAC cell-cycle progression (S phase, FACS); type: cell-based, human; conditions: cultured CAC, still evident after 7 days; FIG. 1A
Procedure: (§2) Peripheral-blood mononuclear cells (PB-MNC) isolated by Fycoll Histopaque 1077 (Sigma) were resuspended in 20% FBS 199 Medium and plated on fibronectin-coated dishes (Biocoat, Becton Dickinson Labware) as described by Hill et al. (Ref. 19). Human UAG studies were performed on CAC recovered from normal donors and diabetic patients. The purity of sorted cells was assessed by FACS analysis (Ref. 20). For experiments, the isolated CAC were cultured under 5% CO2 at 37° C. for 4 days on 20 μg/ml fibronectin-coated dishes in EGM-2 medium containing 10% FBS, hydrocortisone, human Fibroblast Growth Factor, Vascular Endothelial Growth Factor, Insulin Growth Factor 1, ascorbic acid, human Epidermal Growth Factor, gentamicin and amphotericin-B (Cambrex, Walkersville, Md., USA) alone or in combination with 1 μM UAG and 1.2 mg/ml AGE. In selected experiments, isolated CAC were cultured in EBM-2 medium (Cambrex, Walkersville, Md., USA) supplemented with 10 ng/ml of IL-3. […]
as §1

[5] = system: CAC; assay: Expansion (S phase) of CAC recovered from treated subjects, cultured with IL-3; type: in vivo, human; conditions: cells from treated diabetic patients cultured with IL-3; FIG. 3C
Procedure: as §2, §1

[6] = system: CAC; assay: CAC mobilization assay in healthy subjects and diabetic patients; type: in vivo, human; conditions: diabetic patients compared to normal subjects, 6 hours treatment; FIG. 3B
Procedure: All the subjects underwent the following testing session: • UAG (3.0 μg/kg/h iv. as infusion for 12 h from 0 to 12 hours); • isotonic saline (infusion from 0 to 12 hours).
All tests were performed starting at 08.30-09.00 a.m. after overnight fasting, 30 minutes after an indwelling catheter had been placed into a forearm vein by slow infusion of isotonic saline. Blood samples were taken at 0 h, 6 h and 12 h.
Mobilization assay—CAC recovered from healthy subjects and diabetic patients, treated with UAG or saline for 6 h and 12 h, were evaluated. Total number of MNC was counted by 3 independent investigators. The percentage of CAC was calculated by comparing CAC obtained from diabetic patients and healthy donors, treated for 6 h and 12 h with UAG, AG or saline, to CAC recovered at time 0.

[7] = system: CAC; assay: Detection of ROS in CAC (DCF-DA assay, FACS); type: cell-based, human
Procedure: Peripheral-blood mononuclear cells (PB-MNC) isolated by Fycoll Histopaque 1077 (Sigma) were resuspended in 20% FBS 199 Medium and plated on fibronectin-coated dishes (Biocoat, Becton Dickinson Labware) as described by Hill et al. (Ref. 19). Human UAG studies were performed on CAC recovered from normal donors and diabetic patients. The purity of sorted cells was assessed by FACS analysis (Ref. 20). For experiments, the isolated CAC were cultured under 5% CO2 at 37° C. for 4 days on 20 μg/ml fibronectin-coated dishes in EGM-2 medium containing 10% FBS, hydrocortisone, human Fibroblast Growth Factor, Vascular Endothelial Growth Factor, Insulin Growth Factor 1, ascorbic acid, human Epidermal Growth Factor, gentamicin and amphotericin-B (Cambrex, Walkersville, Md., USA) alone or in combination with 1 μM UAG and 1.2 mg/ml AGE. In selected experiments, isolated CAC were cultured in EBM-2 medium (Cambrex, Walkersville, Md., USA) supplemented with 10 ng/ml of IL-3. FACS was used to analyze their phenotype (anti-CD45, anti-CD31, anti-CD105, anti-CD14 antibodies were used) (Ref. 22).
Detection of ROS—DCF-DA (0.5 μM final concentration) was added to CAC in the indicated culture conditions. At the indicated times, the cells were subjected to FACS analysis and processed as previously described (Ret. 22). H2O2 was used as positive control.

[8] = system: cardiomyocytes; conditions: Ref. 8; cited from earlier work
[9] = system: CAC membranes; assay: Competition binding with [125I-Tyr4]-UAG on CAC membranes; design: species or system human; conditions: 100 nM unlabelled competitor, radioligand 0.25 nM; FIG. 5A
Text: The specific binding of [^125I-Tyr^4]-UAG (calculated as difference between binding in the absence, control, and in the presence of UAG) represented about 75% of the control value (P<0.001) and was detected either on fresh (0.25 and 0.26 fmol) or frozen-thawed (0.20 and 0.33 fmol) CAC membranes from two different cell preparations.

1-NH2Gly-Ser-Ser-Phe-Leu-Ser-Pro-Glu-His-Gln-Arg-Val-Gln-Gln-Arg-Lys-Glu-Ser-Lys-Lys-Pro-Pro-Ala-Lys-Leu-Gln-Pro-Arg-28 (GSSFLSPEHQRVQQRKESKKPPAKLQPR; ends and bridges not checked; listed as Homo sapiens) [UAG]
arterial specification (Ephrin B2, Notch1, Notch4 vs EphB4) [1]: able to undergo arterial specification
survival effect on cytokine-induced cell death [2]: comparable
expansion of recovered CAC [3]: could be expanded
percentage of cells in S phase [4]: significant increase in the percentage of cells in S phase
cell expansion of recovered cells (S phase) [5]: underwent cell expansion
number of recovered CAC [6]: strong increase in the number of recovered cells
level of ROS production in AGE-cultured cells ([7]; AGE-cultured CAC, FIG. 1C, 1F): reduced
intracellular ROS production in diabetic-recovered cells ([7]; CAC isolated from type 2 diabetic patients, FIG. 1D): reduced intracellular ROS production
baseline level of ROS production ([7]; compared to untreated cells, FIG. 1B, 1E): drastically reduces the baseline level of ROS production
experimentally-induced cell death [8]: inhibit experimentally-induced cell death
inhibition of binding of [125I-Tyr4]-UAG to CAC membranes [9]: inhibited
